Experimental data published in publication PMC6161601 (Journal of Enzyme Inhibition and Medicinal Chemistry, 2018).
“And” between values parts separate entries of the source, which are not always exact repeats. Equal values may be shown once. “Also recorded” adds a separate entry of the source. Read-outs that look alike come from different tables or passages of the source.

Legend:
[1] = target: T1, human plasma butyrylcholinesterase (BuChE) (Homo sapiens, UniProt P06276); assay: Kinetic parameters and type of BuChE inhibition (Hanes–Woolf); format: biochemical; conditions: for Vmax(i) BuChE: mean ± SD; for vmax BuChE, individual experiments B1–B3: inhibitor at 1/3 of IC50; for vmax BuChE, individual experiments C1–C3: inhibitor at IC50
T1 construct: Plasma for determination of BuChE activity was obtained by centrifuging the blood; from tissue; host or cells: plasma of healthy human donors
Protocol: (§1) The absorbance was recorded at λ = 436 nm using a CECIL 2021 spectrophotometer (CECIL Instruments Limited, Cambridge, UK) with a thermostatic water flow (temperature 37° C).
(§2) AChE Selectivity Index (SI) was calculated with the aid of the following formula: SI = IC50 of BChE/IC50 of AChE. In turn BuChE SI was defined as IC50 of AChE/IC50 of BChE. Linear regression (Hanes–Woolf plots) were used to estimate the maximal velocity (Vmax) and the Michaelis constant (Km).
(§3) To establish the type of inhibition, additional experiments were conducted with various concentrations of substrates (ATC, BTC), and the kinetic parameters of the enzymatic reactions were obtained using Hanes–Woolf equation, which is a graphical representation of enzyme kinetics in which the ratio of the initial substrate concentration [S] to the reaction velocity v is plotted against [S]. […]

[2] = target: T2, human erythrocyte acetylcholinesterase (AChE) (Homo sapiens, UniProt P22303); assay: Kinetic parameters and type of AChE inhibition (Hanes–Woolf); format: biochemical; conditions: for Vmax(i) AChE: mean ± SD; for vmax AChE, individual experiments B1–B3: inhibitor at 1/3 of IC50; for vmax AChE, individual experiments C1–C3: inhibitor at IC50
T2 construct: from tissue; host or cells: haemolysed erythrocytes of healthy human donors
Protocol: as §1, §2, §3

[3] = target: T2, human erythrocyte acetylcholinesterase (AChE); assay: biochemical; conditions: for SI AChE: IC50 BChE/IC50 AChE; for IC50: human erythrocyte AChE, mean ± SD of three independent experiments
Protocol: (§4) Blood samples were obtained from healthy donors from the Voievodal Specialized Hospital in Łódź, Poland (Wojewódzki Specjalistyczny Szpital im. Dr W. Biegańskiego w Łodzi). The blood was collected into vacuum tubes containing sodium citrate. Erythrocytes were separated from plasma by centrifugation (3000 × g, 10 min, 20 °C) with a Micro 22 R centrifuge (Hettich ZENTRIFUGEN, Tuttlingen, Germany) and washed three times with 0.9% saline. Afterwards, red cells were haemolysed by freezing and stored at a temperature of –30 °C; before each experiment, they were restored at 37° C for 15 min and used to determine AChE activity. […] The studies on the biological material were approved by the Bioethics Committee of the Medical University of Lodz (RNN/27/18/KE).
(§5) The activity of both cholinesterases (AChE and BuChE) were conducted using a spectrophotometric method developed by Ellman with previously described modifications[25]^,[30]. […] 400-fold diluted solution of haemolysed erythrocytes or diluted plasma (200 times) was incubated for 15 min (37° C) with DTNB and tested compound at an appropriate concentration, and the reaction was started by addition of substrate (ATC or BTC). The final volume of a sample was 500 µL.
as §2

[4] = target: T1, human plasma butyrylcholinesterase (BuChE); assay: biochemical; conditions: for IC50: human plasma BuChE, mean ± SD of three independent experiments; for SI BuChE: IC50(AChE)/IC50(BChE)
Protocol: as §4, §5, §2

[5] = target: T3, BuChE (Homo sapiens, UniProt P06276); conditions: BTC 0.75 mmol/L; previously published; cited from earlier work
T3 construct: Plasma for determination of BuChE activity was obtained by centrifuging the blood; from tissue; host or cells: plasma of healthy human donors

[6] = target: T4, AChE (Homo sapiens, UniProt P22303); format: biochemical
T4 construct: 400-fold diluted solution of haemolysed erythrocytes or diluted plasma (200 times) was incubated; from tissue; host or cells: haemolysed erythrocytes of healthy human donors

[7] = target: T3, BuChE; assay: BuChE inhibition with excess of substrate (BTC); format: biochemical; conditions: BTC 2.5 mmol/L
[8] = target: T2, human erythrocyte acetylcholinesterase (AChE); conditions: previous study; cited from earlier work
[9] = target: T5, Aβ42 peptide (Homo sapiens, UniProt P05067); assay: Beta-amyloid (Aβ 1–42) aggregation, SensoLyte ThT kit; format: biochemical
T5 construct: Beta-amyloid (Aβ 1–42) aggregation studies were conducted using SensoLyte ThT Aβ42 Aggregation kit; purchased AnaSpec, Inc, Fremont, CA
Protocol: Beta-amyloid (Aβ 1–42) aggregation studies were conducted using SensoLyte ThT Aβ42 Aggregation kit (AnaSpec, Inc, Fremont, CA). Aβ42 peptide was dissolved in cold (4 °C) assay buffer and left to hydrate for a few minutes. The solution was spined at 10,000 rpm for 5 min at 4 °C to centrifuge out any precipitated material. […] The final volume of the test samples was 100 µL. Simultaneously, the positive control and negative control containing morin at the final concentration of 100 µmol/L were established. […] The measurements of fluorescence intensity expressed as relative fluorescence units (RFU) were taken for 90 min with 5 min intervals. The fluorescence intensity measured for positive control equals 100% of Aβ aggregation and was used for estimation of inhibition properties of tested biguanides.
Statistical analysis of data obtained in Aβ aggregation assay was conducted with a commercially available package (GraphPad Prism 5, La Jolla, CA). The results were expressed as the mean ± standard deviation (SD) of measurements conducted in triplicates or quadruplicates. One or two-way ANOVA and subsequent post hoc tests were used for intergroup comparisons. The results were considered significant at p values lower than 0.05.

T3 sequence (P06276 29-602): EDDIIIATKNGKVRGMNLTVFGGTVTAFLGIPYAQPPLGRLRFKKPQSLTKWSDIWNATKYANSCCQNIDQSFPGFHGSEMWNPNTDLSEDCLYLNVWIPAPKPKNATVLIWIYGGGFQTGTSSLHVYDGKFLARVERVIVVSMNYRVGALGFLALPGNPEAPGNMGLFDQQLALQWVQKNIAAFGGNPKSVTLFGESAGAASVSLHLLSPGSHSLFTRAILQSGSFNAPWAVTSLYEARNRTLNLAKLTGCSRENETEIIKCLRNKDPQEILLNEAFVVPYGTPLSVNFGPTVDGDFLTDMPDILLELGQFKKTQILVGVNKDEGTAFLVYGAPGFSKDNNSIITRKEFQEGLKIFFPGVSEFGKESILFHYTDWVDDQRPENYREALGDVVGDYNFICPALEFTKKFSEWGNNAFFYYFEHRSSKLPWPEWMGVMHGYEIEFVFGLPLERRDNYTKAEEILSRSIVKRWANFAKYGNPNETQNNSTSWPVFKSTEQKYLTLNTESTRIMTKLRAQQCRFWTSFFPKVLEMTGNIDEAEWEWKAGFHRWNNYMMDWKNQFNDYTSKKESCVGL
T1 sequence (P06276 29-602): as above
T2 sequence (P22303 other isoform, or with tags, fused parts or gaps): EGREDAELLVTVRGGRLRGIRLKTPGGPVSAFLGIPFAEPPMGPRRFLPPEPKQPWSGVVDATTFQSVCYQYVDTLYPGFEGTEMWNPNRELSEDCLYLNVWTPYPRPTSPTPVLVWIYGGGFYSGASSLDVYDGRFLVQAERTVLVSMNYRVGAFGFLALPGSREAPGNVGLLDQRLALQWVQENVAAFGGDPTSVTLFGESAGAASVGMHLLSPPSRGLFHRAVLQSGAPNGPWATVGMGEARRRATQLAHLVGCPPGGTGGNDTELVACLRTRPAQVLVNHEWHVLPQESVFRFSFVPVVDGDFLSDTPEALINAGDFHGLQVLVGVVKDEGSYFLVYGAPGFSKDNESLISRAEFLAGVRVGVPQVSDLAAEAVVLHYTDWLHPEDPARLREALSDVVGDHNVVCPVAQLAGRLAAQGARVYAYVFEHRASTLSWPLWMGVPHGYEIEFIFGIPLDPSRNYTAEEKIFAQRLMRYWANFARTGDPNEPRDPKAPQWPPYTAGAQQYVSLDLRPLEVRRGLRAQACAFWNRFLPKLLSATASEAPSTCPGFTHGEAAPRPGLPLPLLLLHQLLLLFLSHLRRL
T5 sequence (P05067 672-713): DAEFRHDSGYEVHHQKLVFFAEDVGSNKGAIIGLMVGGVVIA
T4 sequence (P22303 other isoform, or with tags, fused parts or gaps): as the sequence (P22303 other isoform, or with tags, fused parts or gaps) above

| Compound | I: type of inhibition, BuChE [1] | type of BuChE inhibition [1] | vmax BuChE, mean ± SD ([1]; B: inhibitor at 1/3 of IC50) | Vmax(i) BuChE ([1]; B: inhibitor at 1/3 of IC50) | vmax BuChE, mean ± SD ([1]; C: inhibitor at IC50) | Vmax(i) BuChE ([1]; C: inhibitor at IC50) | vmax BuChE, individual experiments B1–B3 [1] | vmax BuChE, individual experiments C1–C3 [1] | type of AChE inhibition [2] | vmax AChE, mean ± SD ([2]; B: inhibitor at 1/3 of IC50) | Vmax(i) AChE ([2]; B: inhibitor at 1/3 of IC50) | vmax AChE, mean ± SD ([2]; C: inhibitor at IC50) | Vmax(i) AChE ([2]; C: inhibitor at IC50) | vmax AChE, individual experiments B1–B3 [2] | vmax AChE, individual experiments C1–C3 [2] | SI AChE [3] | IC50 [3] | IC50 [4] | I: type of inhibition, AChE [2] | SI BuChE [4] | further results |
| --- | --- | --- | --- | --- | --- | --- | --- | --- | --- | --- | --- | --- | --- | --- | --- | --- | --- | --- | --- | --- | --- |
| CCCCCCSNC(N)=NC(=N)N(C)C [Compound 1] | M (M: mixed type) | mixed-type inhibition; also recorded: mixed manner | 206.94 ± 15.02 mA/min | 0.207 ± 0.015 A/min | 174.27 ± 11.70 mA/min | 0.174 ± 0.012 A/min | 195.000 mA/min and 223.809 mA/min and 202.024 mA/min | 161.000 mA/min and 178.705 mA/min and 183.120 mA/min | non-competitive inhibition; also recorded: noncompetitively | 202.18 ± 7.39 mA/min | 0.202 ± 0.007 A/min | 161.59 ± 24.42 mA/min | 0.161 ± 0.024 A/min | 200.260 mA/min and 210.362 mA/min and 195.955 mA/min | 141.006 mA/min and 155.200 mA/min and 188.583 mA/min | 0.59 | 3170 ± 411 µM | 1880 ± 558 µM |  |  |  |
| CCCCC(CC)CSNC(N)=NC(=N)N(C)C (stereo not shown) [Compound 2] | M (M: mixed type) | mixed manner; also recorded: mixed-type | 182.27 ± 9.29 mA/min | 0.182 ± 0.009 A/min | 103.11 ± 19.12 mA/min | 0.103 ± 0.019 A/min | 192.871 mA/min and 178.466 mA/min and 175.485 mA/min | 115.727 mA/min and 81.110 mA/min and 112.514 mA/min | mixed type | 218.43 ± 5.69 mA/min | 0.218 ± 0.005 A/min | 160.75 ± 10.82 mA/min | 0.160 ± 0.011 A/min | 225.000 mA/min and 215.564 mA/min and 214.749 mA/min | 153.011 mA/min and 156.143 mA/min and 173.124 mA/min | 0.09 | 3680 ± 693 µM | 335 ± 107 µM | M (M: mixed type) |  |  |
| CN(C)C(=N)N=C(N)NS(=O)(=O)c1ccc([N+](=O)[O-])cc1 [Compound 3] | M (M: mixed type) | mixed manner | 207.61 ± 5.30 mA/min | 0.208 ± 0.005 A/min | 180.05 ± 19.37 mA/min | 0.180 ± 0.019 A/min | 207.848 mA/min and 202.204 mA/min and 212.802 mA/min | 166.268 mA/min and 171.680 mA/min and 202.204 mA/min | mixed inhibition; also recorded: mixed way | 147.43 ± 22.32 mA/min | 0.147 ± 0.022 A/min | 112.29 ± 24.418 mA/min | 0.112 ± 0.024 A/min | 173.106 mA/min and 136.619 mA/min and 132.580 mA/min | 136.281 mA/min and 87.466 mA/min and 113.130 mA/min | 0.15 | 3820 ± 278 µM | 561 ± 192 µM | M (M: mixed type) | 6.82 |  |
| CN(C)C(=N)N=C(N)NS(=O)(=O)c1ccccc1[N+](=O)[O-] [Compound 4] |  | non-competitively | 229.87 ± 19.38 mA/min | 0.229 ± 0.019 A/min | 174.32 ± 5.91 mA/min | 0.174 ± 0.006 A/min | 229.000 mA/min and 249.675 mA/min and 210.944 mA/min | 174.000 mA/min and 180.395 mA/min and 168.586 mA/min | mixed inhibition | 162.74 ± 5.00 mA/min | 0.163 ± 0.005 A/min | 118.77 ± 19.443 mA/min | 0.119 ± 0.019 A/min | 161.000 mA/min and 168.393 mA/min and 158.846 mA/min | 110.000 mA/min and 141.058 mA/min and 105.263 mA/min | 0.30 | 2860 ± 283 µM | 871 ± 227 µM | M (M: mixed type) | 3.28 |  |
| CN(C)C(=N)N=C(N)N [Metformin, metformin, reference compound] |  |  |  |  |  |  |  |  |  |  |  |  |  |  |  |  |  |  |  |  | BuChE inhibition [5]: up to 21.2%; type of AChE inhibition ([6]; at 1/2 IC50 for AChE): mixed-type; Vmax AChE ([6]; each at 1/2 IC50 for AChE: metformin 1175, donepezil 0.0125, compound 5 106.0 µmol/L, alone or in mixture): 0.179 ± 0.020 A/min; effect on BuChE activity (words) [7]: did not reveal anti-BuChE activity; effect on BuChE activity (words) ([7]; listed as metformin): not to affect the enzyme activity; inhibition at 3000 µM ([7]; metformin at 3 mmol/L): 1.1 ± 0.51%; type of AChE inhibition [8]: mixed inhibition; inhibition at 600 µM ([9]; 600 µmol/L, read-out: maximal inhibition of Aβ aggregation): 11.3%; effect on Aβ fibrillation vs positive control ([9]; both tested concentrations, 5–90 min): did not significantly affect; also recorded: not to significantly affect |
